Patent publication US8513221B2, “PI3K isoform selective inhibitors” (Xcovery Holding, LLC, priority 2008, dated 2013)
Read-outs that look alike come from different tables or passages of the source.

How the values were obtained:
PI3Kδ = molecular target: T1, PI3Kδ (Homo sapiens, UniProt O00329); assay: Ambit Biosciences kinase competition binding assay, PI3Kδ
T1 construct: purchased Ambit Biosciences (San Diego, Calif., USA); host or cells: T7 phage in BL21-derived E. coli, or HEK-293
T1 sequence (O00329 1-1044): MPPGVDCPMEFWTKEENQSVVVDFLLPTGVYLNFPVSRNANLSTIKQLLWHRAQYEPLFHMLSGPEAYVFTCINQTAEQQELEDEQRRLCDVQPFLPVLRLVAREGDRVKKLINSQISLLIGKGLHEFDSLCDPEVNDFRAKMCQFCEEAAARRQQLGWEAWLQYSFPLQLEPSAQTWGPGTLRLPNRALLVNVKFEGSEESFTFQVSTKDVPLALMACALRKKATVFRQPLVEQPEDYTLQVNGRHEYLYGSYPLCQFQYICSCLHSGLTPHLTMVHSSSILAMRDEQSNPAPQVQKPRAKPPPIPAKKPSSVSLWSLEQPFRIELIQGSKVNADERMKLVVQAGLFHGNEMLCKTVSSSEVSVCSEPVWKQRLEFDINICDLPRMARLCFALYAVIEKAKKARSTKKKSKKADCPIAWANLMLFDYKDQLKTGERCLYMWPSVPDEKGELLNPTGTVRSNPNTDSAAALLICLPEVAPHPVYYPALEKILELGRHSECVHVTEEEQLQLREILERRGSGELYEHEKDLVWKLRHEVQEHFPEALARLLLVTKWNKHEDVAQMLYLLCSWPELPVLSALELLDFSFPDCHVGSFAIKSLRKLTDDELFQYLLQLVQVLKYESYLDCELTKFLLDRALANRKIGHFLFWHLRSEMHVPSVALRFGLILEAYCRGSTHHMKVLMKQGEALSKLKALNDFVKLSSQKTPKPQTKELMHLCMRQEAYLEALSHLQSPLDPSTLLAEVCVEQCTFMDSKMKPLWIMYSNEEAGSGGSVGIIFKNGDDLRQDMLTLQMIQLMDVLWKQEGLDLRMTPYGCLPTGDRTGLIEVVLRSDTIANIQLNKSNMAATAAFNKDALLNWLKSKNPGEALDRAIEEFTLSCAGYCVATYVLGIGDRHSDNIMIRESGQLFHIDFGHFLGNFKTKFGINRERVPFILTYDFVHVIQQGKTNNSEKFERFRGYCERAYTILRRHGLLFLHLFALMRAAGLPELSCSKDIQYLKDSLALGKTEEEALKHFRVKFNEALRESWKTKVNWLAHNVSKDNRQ
Description: Kinase assays. For most assays, kinase-tagged T7 phage strains were grown in parallel in 24-well blocks in an E. coli host derived from the BL21 strain. E. coli were grown to log-phase and infected with T7 phage from a frozen stock (multiplicity of infection ˜0.1) and incubated with shaking at 32° C. until lysis (˜90 minutes). The lysates were centrifuged (6,000×g) and filtered ([…]) to remove cell debris. The remaining kinases were produced in HEK-293 cells and subsequently tagged with DNA for qPCR detection. […] The liganded beads were blocked with excess biotin and washed with blocking buffer (SeaBlock (Pierce), 1% BSA, 0.05% Tween 20, 1 mM DTT) to remove unbound ligand and to reduce non-specific phage binding. […] Test compounds were prepared as 40× stocks in 100% DMSO and directly diluted into the assay. All reactions were performed in polypropylene 384-well plates in a final volume of 0.04 ml. […] The kinase concentration in the eluates was measured by qPCR.
Compounds were tested using the above assay at Ambit Biosciences (San Diego, Calif., USA).

PI3Kβ = molecular target: T2, PI3Kβ (Homo sapiens, UniProt P42338); assay: Ambit Biosciences kinase competition binding assay, PI3Kβ; details: read-out: inhibitory activity against other isoforms: PI3Kβ
T2 construct: purchased Ambit Biosciences (San Diego, Calif., USA); host or cells: T7 phage in BL21-derived E. coli, or HEK-293
Description: (§1) Assays were performed as described in Fabian et al. (2005) Nature Biotechnology, vol. 23, p. 329 and in Karaman et al. (2008) Nature Biotechnology, vol. 26, p. 127.
(§2) Kinase assays. For most assays, kinase-tagged T7 phage strains were grown in parallel in 24-well blocks in an E. coli host derived from the BL21 strain. E. coli were grown to log-phase and infected with T7 phage from a frozen stock (multiplicity of infection ˜0.1) and incubated with shaking at 32° C. until lysis (˜90 minutes). The lysates were centrifuged (6,000×g) and filtered ([…]) to remove cell debris. The remaining kinases were produced in HEK-293 cells and subsequently tagged with DNA for qPCR detection. Streptavidin-coated magnetic beads were treated with biotinylated small molecule ligands for 30 minutes at room temperature to generate affinity resins for kinase assays. The liganded beads were blocked with excess biotin and washed with blocking buffer (SeaBlock (Pierce), 1% BSA, 0.05% Tween 20, 1 mM DTT) to remove unbound ligand and to reduce non-specific phage binding. Binding reactions were assembled by combining kinases, liganded affinity beads, and test compounds in 1× binding buffer (20% SeaBlock, 0.17× PBS, 0.05% Tween 20, 6 mM DTT). Test compounds were prepared as 40× stocks in 100% DMSO and directly diluted into the assay. […] The kinase concentration in the eluates was measured by qPCR. […]

PI3Kα = molecular target: T3, PI3Kα (Homo sapiens, UniProt P42336); assay: Ambit Biosciences kinase competition binding assay, PI3Kα; details: read-out: inhibitory activity against other isoforms: PI3Kα
T3 construct: purchased Ambit Biosciences (San Diego, Calif., USA); host or cells: T7 phage in BL21-derived E. coli, or HEK-293
Description: as §1, §2

PI3Kγ = molecular target: T4, PI3Kγ (Homo sapiens, UniProt P48736); assay: Ambit Biosciences kinase competition binding assay, PI3Kγ; details: read-out: inhibitory activity against other isoforms: PI3Kγ
T4 construct: purchased Ambit Biosciences (San Diego, Calif., USA); host or cells: T7 phage in BL21-derived E. coli, or HEK-293
Description: as §1, §2

mTor = molecular target: T5, mTor (Homo sapiens, UniProt P42345); assay: Z′-LYTE biochemical assay for mTor; details: at up to 1 μM
T5 construct: purchased Invitrogen Corp. (Madison, Wis., USA)
Description: The Z′-LYTE® biochemical assay for mTor The mTor kinase activity was assessed using the Z′-LYTE® biochemical assay of Invitrogen Corp. (Madison, Wis., USA).

T3 sequence (P42336 whole entry, canonical isoform): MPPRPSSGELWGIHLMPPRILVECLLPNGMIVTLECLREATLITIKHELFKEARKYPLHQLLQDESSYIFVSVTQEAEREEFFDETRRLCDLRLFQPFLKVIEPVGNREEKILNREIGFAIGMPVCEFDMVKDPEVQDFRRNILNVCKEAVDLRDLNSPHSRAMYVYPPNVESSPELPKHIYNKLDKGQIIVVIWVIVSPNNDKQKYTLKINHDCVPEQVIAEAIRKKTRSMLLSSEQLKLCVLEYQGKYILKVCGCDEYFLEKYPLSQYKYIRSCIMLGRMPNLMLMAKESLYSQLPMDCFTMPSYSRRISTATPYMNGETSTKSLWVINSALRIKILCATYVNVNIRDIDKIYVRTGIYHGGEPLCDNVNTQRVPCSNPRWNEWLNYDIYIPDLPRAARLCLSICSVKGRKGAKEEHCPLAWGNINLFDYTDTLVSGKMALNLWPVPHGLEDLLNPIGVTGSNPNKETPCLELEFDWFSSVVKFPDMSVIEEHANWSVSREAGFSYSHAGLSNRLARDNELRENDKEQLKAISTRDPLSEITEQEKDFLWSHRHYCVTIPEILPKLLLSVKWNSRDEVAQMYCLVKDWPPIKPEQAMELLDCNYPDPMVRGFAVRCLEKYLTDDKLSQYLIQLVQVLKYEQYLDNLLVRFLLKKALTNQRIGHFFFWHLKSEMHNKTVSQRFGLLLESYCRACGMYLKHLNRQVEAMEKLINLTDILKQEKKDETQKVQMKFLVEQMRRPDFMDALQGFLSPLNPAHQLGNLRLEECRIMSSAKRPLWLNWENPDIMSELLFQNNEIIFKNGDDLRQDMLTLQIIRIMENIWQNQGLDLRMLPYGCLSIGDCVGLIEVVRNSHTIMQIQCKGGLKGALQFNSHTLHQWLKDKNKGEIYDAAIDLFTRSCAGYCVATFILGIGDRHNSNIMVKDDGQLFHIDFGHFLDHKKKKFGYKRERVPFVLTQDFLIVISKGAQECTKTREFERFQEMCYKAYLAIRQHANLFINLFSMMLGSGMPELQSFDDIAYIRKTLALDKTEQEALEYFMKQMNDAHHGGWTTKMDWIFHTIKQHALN
T4 sequence (P48736 whole entry, canonical isoform): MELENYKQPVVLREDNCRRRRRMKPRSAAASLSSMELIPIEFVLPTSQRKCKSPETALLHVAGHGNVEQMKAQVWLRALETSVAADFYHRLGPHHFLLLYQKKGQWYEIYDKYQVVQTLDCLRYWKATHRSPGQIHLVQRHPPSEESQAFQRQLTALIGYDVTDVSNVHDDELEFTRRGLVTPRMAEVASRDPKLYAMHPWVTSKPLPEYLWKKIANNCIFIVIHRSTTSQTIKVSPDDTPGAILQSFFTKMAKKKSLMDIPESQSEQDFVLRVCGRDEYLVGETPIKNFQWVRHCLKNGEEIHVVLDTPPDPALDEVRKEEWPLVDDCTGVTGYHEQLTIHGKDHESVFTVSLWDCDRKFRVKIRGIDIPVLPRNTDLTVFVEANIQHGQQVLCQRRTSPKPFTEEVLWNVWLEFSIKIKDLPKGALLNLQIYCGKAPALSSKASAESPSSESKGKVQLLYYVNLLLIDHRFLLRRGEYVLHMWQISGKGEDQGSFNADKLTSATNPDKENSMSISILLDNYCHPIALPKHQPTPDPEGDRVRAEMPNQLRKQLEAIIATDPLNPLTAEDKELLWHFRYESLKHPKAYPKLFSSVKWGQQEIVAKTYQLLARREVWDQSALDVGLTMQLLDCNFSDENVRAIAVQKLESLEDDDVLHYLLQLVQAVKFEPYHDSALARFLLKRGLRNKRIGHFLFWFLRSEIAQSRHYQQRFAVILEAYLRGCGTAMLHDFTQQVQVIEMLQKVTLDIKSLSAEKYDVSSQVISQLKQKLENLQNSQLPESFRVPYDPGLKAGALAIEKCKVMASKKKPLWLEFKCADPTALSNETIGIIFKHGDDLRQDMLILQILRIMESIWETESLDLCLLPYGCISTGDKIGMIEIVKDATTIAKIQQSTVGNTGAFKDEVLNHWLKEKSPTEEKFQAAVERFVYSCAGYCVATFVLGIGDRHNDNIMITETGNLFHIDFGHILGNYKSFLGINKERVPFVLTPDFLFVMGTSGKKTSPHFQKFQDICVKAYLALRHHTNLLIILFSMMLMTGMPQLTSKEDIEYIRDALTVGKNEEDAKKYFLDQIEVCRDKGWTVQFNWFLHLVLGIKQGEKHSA
T2 sequence (P42338 whole entry, canonical isoform): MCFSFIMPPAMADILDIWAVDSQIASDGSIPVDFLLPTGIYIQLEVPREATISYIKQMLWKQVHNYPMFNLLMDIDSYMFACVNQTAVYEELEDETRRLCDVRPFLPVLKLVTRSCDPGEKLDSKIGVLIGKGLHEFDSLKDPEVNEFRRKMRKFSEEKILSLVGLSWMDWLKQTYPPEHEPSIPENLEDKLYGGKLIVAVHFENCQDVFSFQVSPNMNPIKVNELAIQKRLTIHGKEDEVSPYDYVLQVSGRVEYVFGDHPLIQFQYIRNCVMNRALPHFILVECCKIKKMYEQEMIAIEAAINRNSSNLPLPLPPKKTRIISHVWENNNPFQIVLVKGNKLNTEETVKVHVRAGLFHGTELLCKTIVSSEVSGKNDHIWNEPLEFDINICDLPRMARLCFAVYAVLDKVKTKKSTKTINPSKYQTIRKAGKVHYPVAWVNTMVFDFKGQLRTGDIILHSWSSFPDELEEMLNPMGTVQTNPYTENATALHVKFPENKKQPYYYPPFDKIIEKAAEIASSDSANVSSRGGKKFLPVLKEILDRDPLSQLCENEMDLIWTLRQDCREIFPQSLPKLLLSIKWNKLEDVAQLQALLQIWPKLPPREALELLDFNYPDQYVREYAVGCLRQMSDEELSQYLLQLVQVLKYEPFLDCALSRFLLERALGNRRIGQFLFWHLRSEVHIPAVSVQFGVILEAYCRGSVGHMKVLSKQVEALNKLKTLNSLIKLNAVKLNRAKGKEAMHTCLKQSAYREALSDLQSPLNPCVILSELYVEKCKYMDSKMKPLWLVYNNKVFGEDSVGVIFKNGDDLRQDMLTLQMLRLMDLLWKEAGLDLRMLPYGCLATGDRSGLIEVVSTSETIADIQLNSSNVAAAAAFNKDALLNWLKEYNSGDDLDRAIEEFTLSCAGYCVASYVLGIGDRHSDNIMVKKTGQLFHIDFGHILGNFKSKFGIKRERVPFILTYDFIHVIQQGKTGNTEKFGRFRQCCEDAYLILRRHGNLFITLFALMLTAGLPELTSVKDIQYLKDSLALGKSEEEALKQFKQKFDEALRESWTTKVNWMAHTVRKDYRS

SMILES	IC50 (PI3Kδ; read-out: inhibition against PI3Kδ (IC50))	IC50 (PI3Kβ)	IC50 (PI3Kα)	IC50 (PI3Kγ)	IC50 (PI3Kδ)	mTor kinase inhibition (mTor)
CS(=O)(=O)N1CCN(CCn2cnc3c(-n4c(C(F)F)nc5ccccc54)nc(N4CCOCC4)nc32)CC1 [Example 14, 6-(2-difluoromethyl-benzoimidazol-1-yl)-9-[2-(4-methanesulfonyl-piperazin-1-yl)-ethyl]-2-morpholin-4-yl-9H-purine]	< 30 nM	> 100 nM	> 100 nM	> 100 nM	–	–
OCCn1cnc2c(-n3c(C(F)F)nc4ccccc43)nc(N3CCOCC3)nc21 [Example 28, 2-{6-[2-(difluoromethyl)benzimidazol-1-yl]-2-morpholin-4-ylpurin-9-yl}ethan-1-ol]	–	> 100 nM	> 100 nM	> 100 nM	< 30 nM	did not significantly inhibit
